Data as given in article PMC6199744, “Development of Chemical Proteomics for the Folateome and Analysis of the Kinetoplastid Folateome” (ACS Infectious Diseases, 2018).
Read-outs that look alike come from different tables or passages of the source.

Columns and labels:
Assay type in all cases: binding
[1] = target: T1, HeLa cell extract proteins (Homo sapiens, UniProt P68371); conditions: captured protein TUBB2C; HeLa
T1 construct: endogenous in cells; host or cells: HeLa cell extract

[2] = target: T2, HeLa cell extract proteins (Homo sapiens, UniProt O43615); conditions: protein TIMM44; HeLa
T2 construct: endogenous in cells; host or cells: HeLa cell extract
T2 sequence (O43615 1-452): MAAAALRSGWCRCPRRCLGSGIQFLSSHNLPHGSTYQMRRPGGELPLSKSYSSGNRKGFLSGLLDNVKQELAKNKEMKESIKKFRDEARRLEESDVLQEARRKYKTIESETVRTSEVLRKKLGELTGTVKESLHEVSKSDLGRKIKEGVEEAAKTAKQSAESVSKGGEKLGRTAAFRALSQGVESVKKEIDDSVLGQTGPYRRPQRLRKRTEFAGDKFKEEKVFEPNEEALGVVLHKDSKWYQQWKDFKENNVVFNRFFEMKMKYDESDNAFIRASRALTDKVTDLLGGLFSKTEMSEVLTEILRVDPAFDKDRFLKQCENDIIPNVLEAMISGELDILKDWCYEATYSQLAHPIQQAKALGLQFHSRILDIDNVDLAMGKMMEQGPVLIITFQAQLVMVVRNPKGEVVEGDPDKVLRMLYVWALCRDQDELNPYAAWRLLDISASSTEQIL

[3] = target: T3, HeLa cell extract proteins (Homo sapiens, UniProt P00390); conditions: protein GSR; HeLa
T3 construct: endogenous in cells; host or cells: HeLa cell extract
T3 sequence (P00390 44-522): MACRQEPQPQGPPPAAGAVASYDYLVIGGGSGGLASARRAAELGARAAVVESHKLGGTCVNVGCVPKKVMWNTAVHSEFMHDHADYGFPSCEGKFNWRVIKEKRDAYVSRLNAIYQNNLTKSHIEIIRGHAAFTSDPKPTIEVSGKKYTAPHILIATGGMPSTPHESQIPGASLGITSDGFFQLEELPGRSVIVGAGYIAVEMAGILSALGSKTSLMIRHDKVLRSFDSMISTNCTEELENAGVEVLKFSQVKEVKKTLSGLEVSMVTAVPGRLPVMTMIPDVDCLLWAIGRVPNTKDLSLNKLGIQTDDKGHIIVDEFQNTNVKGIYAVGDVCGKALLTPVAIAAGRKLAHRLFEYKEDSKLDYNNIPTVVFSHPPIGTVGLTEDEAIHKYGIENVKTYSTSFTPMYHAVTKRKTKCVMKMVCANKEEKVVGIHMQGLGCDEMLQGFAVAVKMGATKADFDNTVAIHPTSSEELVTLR

[4] = target: T4, HeLa cell extract proteins (Homo sapiens, UniProt Q9UIA9); conditions: HeLa; protein XPO7
T4 construct: endogenous in cells; host or cells: HeLa cell extract
T4 sequence (Q9UIA9 1-1087): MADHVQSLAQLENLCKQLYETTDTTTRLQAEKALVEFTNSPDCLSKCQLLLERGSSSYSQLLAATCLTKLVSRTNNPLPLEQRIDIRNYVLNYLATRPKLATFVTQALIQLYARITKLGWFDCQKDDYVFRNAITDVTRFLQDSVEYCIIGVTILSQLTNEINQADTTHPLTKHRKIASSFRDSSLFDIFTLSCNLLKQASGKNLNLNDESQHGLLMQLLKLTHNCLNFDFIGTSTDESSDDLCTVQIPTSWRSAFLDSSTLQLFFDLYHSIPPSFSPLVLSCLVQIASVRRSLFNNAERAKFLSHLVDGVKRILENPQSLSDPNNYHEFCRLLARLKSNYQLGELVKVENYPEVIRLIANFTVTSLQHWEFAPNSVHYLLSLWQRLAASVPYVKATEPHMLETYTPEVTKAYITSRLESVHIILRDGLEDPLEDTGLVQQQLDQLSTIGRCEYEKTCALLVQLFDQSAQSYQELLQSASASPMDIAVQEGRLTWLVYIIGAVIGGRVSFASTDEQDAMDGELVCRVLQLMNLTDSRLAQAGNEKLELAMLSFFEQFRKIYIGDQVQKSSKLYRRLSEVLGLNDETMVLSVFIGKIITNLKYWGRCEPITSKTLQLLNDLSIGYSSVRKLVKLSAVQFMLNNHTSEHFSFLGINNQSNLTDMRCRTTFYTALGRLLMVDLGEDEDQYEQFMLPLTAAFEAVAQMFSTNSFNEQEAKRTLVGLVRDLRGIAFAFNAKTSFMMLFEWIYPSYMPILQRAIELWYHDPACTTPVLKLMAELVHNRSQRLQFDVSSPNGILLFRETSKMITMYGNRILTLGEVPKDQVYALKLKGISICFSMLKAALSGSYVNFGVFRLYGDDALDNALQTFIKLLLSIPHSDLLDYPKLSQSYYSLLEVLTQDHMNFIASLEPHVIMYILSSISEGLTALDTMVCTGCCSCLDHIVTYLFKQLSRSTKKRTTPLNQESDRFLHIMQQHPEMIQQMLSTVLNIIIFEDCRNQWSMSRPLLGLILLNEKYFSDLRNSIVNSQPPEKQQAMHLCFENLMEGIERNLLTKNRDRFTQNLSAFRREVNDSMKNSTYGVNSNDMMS

[5] = target: T5, HeLa cell extract proteins (Homo sapiens, UniProt P62081)
T5 construct: endogenous in cells; host or cells: HeLa cell extract

[6] = target: T6, HeLa cell extract proteins (Homo sapiens, UniProt P68871)
T6 construct: endogenous in cells; host or cells: HeLa cell extract

[7] = target: T7, HeLa cell extract proteins (Homo sapiens, UniProt P35613)
T7 construct: endogenous in cells; host or cells: HeLa cell extract
T7 sequence (P35613 22-385): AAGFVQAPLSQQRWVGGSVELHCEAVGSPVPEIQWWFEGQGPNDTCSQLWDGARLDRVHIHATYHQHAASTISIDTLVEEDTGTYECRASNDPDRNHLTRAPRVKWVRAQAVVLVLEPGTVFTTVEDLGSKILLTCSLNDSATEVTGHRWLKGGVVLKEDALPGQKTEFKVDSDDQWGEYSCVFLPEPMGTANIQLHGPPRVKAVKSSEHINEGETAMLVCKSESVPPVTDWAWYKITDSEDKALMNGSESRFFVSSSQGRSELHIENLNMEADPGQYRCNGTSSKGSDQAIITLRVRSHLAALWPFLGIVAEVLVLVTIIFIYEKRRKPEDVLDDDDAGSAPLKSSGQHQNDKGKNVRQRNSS

[8] = HeLa, protein HBB (BETA-GLOBIN GENE FROM A T[…])

T1 sequence (P68371 whole entry): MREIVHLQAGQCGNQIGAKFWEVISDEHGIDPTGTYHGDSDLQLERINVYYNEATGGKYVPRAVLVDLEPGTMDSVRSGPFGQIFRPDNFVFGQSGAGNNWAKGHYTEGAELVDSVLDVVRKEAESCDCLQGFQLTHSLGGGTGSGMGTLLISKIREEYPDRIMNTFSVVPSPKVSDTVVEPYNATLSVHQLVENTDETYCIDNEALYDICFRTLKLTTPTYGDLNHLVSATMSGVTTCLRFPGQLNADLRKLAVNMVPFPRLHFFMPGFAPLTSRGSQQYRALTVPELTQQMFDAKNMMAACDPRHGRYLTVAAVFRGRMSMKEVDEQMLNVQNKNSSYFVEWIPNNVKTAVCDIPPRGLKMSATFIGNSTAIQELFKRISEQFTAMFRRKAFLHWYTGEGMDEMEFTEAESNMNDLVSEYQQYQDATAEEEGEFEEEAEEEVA
T6 sequence (P68871 whole entry): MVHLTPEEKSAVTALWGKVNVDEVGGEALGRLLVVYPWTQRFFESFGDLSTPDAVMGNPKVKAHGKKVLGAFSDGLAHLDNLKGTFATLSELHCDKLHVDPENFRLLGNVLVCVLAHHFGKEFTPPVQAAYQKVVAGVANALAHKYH

Compound | fold changes relative to vehicle control [1] | fold changes relative to vehicle control [2] | fold changes relative to vehicle control [3] | fold changes relative to vehicle control [4] | fold changes relative to vehicle control ([5]; HeLa, protein RPS7) | fold changes relative to vehicle control [6, 8] | fold changes relative to vehicle control ([7]; protein BSG, HeLa) | other results
Nc1nc2cccc(-c3ccccc3)c2n1Cc1ccc(Cl)c(Cl)c1 [compound 3] | 1.02 | 1.03 | 1 | 0.98 | – | – | – | –
NCCOCCOCC(=O)Nc1nc2ncc(CNc3ccc(C(=O)NC(CCC(=O)O)C(=O)O)cc3)nc2c(=O)[nH]1 (stereo not drawn) [compound 6] | – | – | – | – | 1.06 | 0.99 | 1.02 | –
Nc1nc2[nH]cc(CCc3ccc(C(=O)N[C@@H](CCC(=O)O)C(=O)O)cc3)c2c(=O)[nH]1 [PTX, pemetrexed] | – | – | – | – | – | – | – | fold changes relative to vehicle control [5]: 0.92; fold changes relative to vehicle control [6]: 0.94; fold changes relative to vehicle control [7]: 0.88
Nc1nc2c(c(=O)[nH]1)N(C=O)C(CNc1ccc(C(=O)N[C@@H](CCC(=O)O)C(=O)O)cc1)CN2 (stereo partly drawn) [LEU, leucovorin] | – | – | – | – | 0.94 | 1.13 | 0.87 | –
CCCCCCOc1ccc(Cc2cnc(N)nc2N)cc1 [compound 1] | 1.03 | 1.06 | 0.94 | 0.88 | – | – | – | –
NCCCNc1ccc(C(=O)NC(CCC(=O)O)C(=O)O)cc1 (stereo not drawn) [compound 7] | – | – | – | – | 0.88 | 0.87 | 0.8 | –
CCCCCCOc1cccc(Cc2cnc(N)nc2N)c1 [compound 2] | 0.94 | 1.29 | 1.15 | 1.28 | – | – | – | –
